Legend:
Type in all cases: cell-based
[1] = test system: Oral squamaous carcinoma HSC-4 cells; test: Single-agent cytotoxicity assay in head & neck tumor cell lines; details: Homo sapiens
Protocol: (§1) Oral squamaous carcinoma HSC-3 and HSC-4 cells were cultured in MEM+10% FBS. Oral squamaous carcinoma CAL 27 was cultured in DMEM+10% FBS. Basaloid squamous cell line PE/CA-PJ34 (clone 12) was cultured in IMDM+10% FBS. All cell lines were maintained in their corresponding growth media containing 100 U/mL Penicillin and 100 μg/mL Streptomycin in 37° C. incubator with 5% CO2 till ready for assay. According to individual cell line growth rate, cells were seeded at different densities as indicated in each graph in 96-well plates in the time of assay. Cells were incubated for overnight at 37° C. before treated with their corresponding growth media containing free base in 0.1% DMSO at various concentrations ranging from 5000 nM to 0.064 nM. 0.1% DMSO was used as mock treatment or control. Media and compound were replenished every 5 days. After incubation for 7, 10, 11 or 13 days (as indicated in each graph), cell survival was measured by CellTiter Glo (Promega) and cell survival fraction was calculated relative to control. GraphPad Prism5 software was used to plot data and calculate IC50 values.

[2] = test system: Oral squamaous carcinoma CAL 27; test: as above; details: Homo sapiens
Protocol: as §1

[3] = test system: Basaloid squamous cell line PE/CA-PJ34 (clone 12); test: as above
Protocol: as §1

[4] = test system: Oral squamaous carcinoma HSC-3 cells; test: as above; details: Homo sapiens
Protocol: as §1

[5] = test system: Mantle cell lymphoma cell line Granta-519; test: Single-agent cytotoxicity assay, CellTiter Glo cell survival; details: Homo sapiens, Granta-519, 96 h, 4-day assay
Protocol: (§2) Mantle cell lymphoma cell line Granta-519 was cultured in Dulbecco's MEM (4.5 g/L glucose) containing 10% FBS, 2 mM L-glutamine, 100 U/mL Penicillin and 100 μg/mL Streptomycin. Mantle cell lymphoma cell line Jeko-1 was cultured in RPMI1640 containing 10% FBS, 100 U/mL Penicillin and 100 μg/mL Streptomycin. Mantle cell lymphoma cell line Z138 was cultured in IMDM containing 10% horse serum, 100 U/mL Penicillin and 100 μg/mL Streptomycin. All cell lines were maintained in 37° C. incubator with 5% CO2 till ready for assay. Granta-519, Jeko-1 and Z138 cells were seeded at either 1000 or 5000 cells/well in 96-well plates. Cells were incubated for overnight at 37° C. before treated with their corresponding growth media containing free base in 0.1% DMSO at various concentrations ranging from 1000 nM to 0.32 nM. 0.1% DMSO was used as mock treatment or control. After 4 days incubation, cell survival was measured by CellTiter Glo (Promega) and cell survival fraction was calculated relative to control. GraphPad Prism5 software was used to plot data and calculate IC50 values.

[6] = test system: Mantle cell lymphoma cell line Jeko-1; test: as above; details: Homo sapiens, JeKo-1, 96 h, 4-day assay
Protocol: as §2

[7] = test system: Mantle cell lymphoma cell line Z138; test: as above; details: Homo sapiens, Z-138, 96 h, 4-day assay
Protocol: as §2

## Cn1ncnc1[C@H]1c2n[nH]c(=O)c3cc(F)cc(c23)N[C@@H]1c1ccc(F)cc1 [free base, (8S,9R)-5-fluoro-8-(4-fluorophenyl)-9-(1-methyl-1H-1,2,4-triazol-5-yl)-8,9-dihydro-2H-pyrido[4,3,2-de]phthalazin-3(7H)-one]
[1]; 168 h, HSC-4, 7 days, 100/well
  IC50: 58 nM
[1]; 264 h, HSC-4, 11 days, 200/well
  IC50: 48.8 nM
[2]; CAL-27, 168 h, CAL27, 7 days, 800/well
  IC50: 23 nM
[2]; CAL-27, 264 h, CAL27, 11 days, 400/well
  IC50: 15.3 nM
[3]; 240 h, PE/CA-PJ34 C12, 10 days, 2000/well
  IC50: 13.6 nM
[3]; 312 h, PE/CA-PJ34 C12, 13 days, 1000/well
  IC50: 18.1 nM
[4]; 168 h, HSC-3, 7 days, 1500/well
  IC50: 972 nM
[4]; 264 h, HSC-3, 11 days, 750/well
  IC50: 931 nM
[5]; Granta-519, 1000/well
  IC50: 1.7 nM
[5]; Granta-519, 5000/well
  IC50: 8.83 nM
[6]; Jeko-1, 1000/well
  IC50: 64.2 nM
[6]; Jeko-1, 5000/well
  IC50: 357 nM
[7]; Z-138, 1000/well
  IC50: 10.4 nM
[7]; Z-138, 5000/well
  IC50: 59.4 nM

Source: patent US10189837B2, “Crystalline (8S,9R)-5-fluoro-8-(4-fluorophenyl)-9-(1-methyl-1H-1,2,4-triazol-5-yl)-8,9-dihydro-2H-pyrido[4,3,2-de]phthalazin-3(7H)-one tosylate salt” (Medivation Technologies, LLC, priority 2010, dated 2019)
